The values that follow come from ChEMBL document CHEMBL4765322, “Novel curcumin derivatives as P-glycoprotein inhibitors: Molecular modeling, synthesis and sensitization of multidrug resistant cells to doxorubicin” (Eur J Med Chem, 2020).

As a reminder, the IC50 is the concentration that inhibits the measured activity by half.

A short description of test [1]: Cytotoxicity against human K562/4 cells assessed as reduction in cell viability measured after 72 hrs by MTT assay. The conditions noted are these: K562/4, 72 h. It is filed as cell-based. (In general: Tetrazolium assays rely on reduction of a dye to a coloured formazan, in cell work by metabolically active cells.)
A short description of test [2]: Inhibition of P-gp mediated multidrug resistance in human K562/4 cells assessed as sensitization of cells to doxorubicin by measuring reduction in cell viability preincubated with compound for 30 mins prior to 1 uM doxorubicin addition and measured after 72 hrs by MTT assay. It is filed as cell-based.
The test system of test [3] is K562/4. The conditions noted are these: Homo sapiens.
Description: Inhibition of P-gp-mediated doxorubicin efflux in human K562/4 cells assessed as minimal concentration required for the effect by flow cytometric analysis

As to `CCOC(=O)c1ccc(-n2nc(/C=C/c3ccc(O)c(OC)c3)cc2/C=C/c2ccc(O)c(OC)c2)cc1`, the IC50 in test [1] turned out to be 10.2 µM.

Consider `COc1ccc(/C=C/c2cc(/C=C/c3ccc(OC)c(OC)c3)n(-c3ccc(C(=O)NCC(C)C)cc3)n2)cc1OC`, for which the half-maximal inhibitory concentration (IC50) in test [2] is 0.4 µM; in test [1] it was greater than 50 µM.

Regarding `CCOC(=O)c1ccc(-n2nc(/C=C/c3ccc(O)c(OC)c3)cc2/C=C/c2ccc(O)c(OC)c2)cc1F`, the IC50 in test [1] stood at 5.4 µM.

Regarding `CCOC(=O)c1ccc(-n2nc(/C=C/c3ccc(OC)c(OC)c3)cc2/C=C/c2ccc(OC)c(OC)c2)cc1[N+](=O)[O-]`, the 50% inhibitory concentration (IC50) in test [1] is greater than 50 µM.

Take `COc1ccc(/C=C/c2cc(/C=C/c3ccc(OC)c(OC)c3)n(-c3ccc(C(=O)N4CCCC4)cc3)n2)cc1OC`: the values for the half-maximal inhibitory concentration (IC50) in test [2] and in test [1] were 0.5 µM and greater than 50 µM, respectively.

As for `CCNC(=O)c1ccc(-n2nc(/C=C/c3ccc(O)c(OC)c3)cc2/C=C/c2ccc(O)c(OC)c2)cc1`, the IC50 in test [1] came to 4.3 µM.

For `COc1cc(/C=C/c2cc(/C=C/c3ccc(O)c(OC)c3)n(-c3ccc(C(=O)OCC(F)(F)F)cc3)n2)ccc1O`, the half-inhibitory concentration (IC50) in test [1] is greater than 25 µM.

Take `COc1cc(/C=C/c2cc(/C=C/c3ccc(O)c(OC)c3)n(-c3ccc(C(=O)OC(C)(C)C)cc3)n2)ccc1O`: the IC50 in test [1] was greater than 25 µM.

For `CCNS(=O)(=O)c1ccc(-n2nc(/C=C/c3ccc(OC)c(OC)c3)cc2/C=C/c2ccc(OC)c(OC)c2)cc1`, the IC50 in test [2] is 0.5 µM; in test [1], greater than 50 µM.

As to `CCNC(=O)c1ccc(-n2nc(/C=C/c3ccc(OC)c(OC)c3)cc2/C=C/c2ccc(OC)c(OC)c2)cc1`, the IC50 in test [2] was 0.2 µM; in test [1] it was greater than 50 µM.

Take `COc1cc(/C=C/c2cc(/C=C/c3ccc(O)c(OC)c3)n(-c3ccc(C(=O)OC/C=C(\C)CC/C=C(\C)CCC=C(C)C)cc3)n2)ccc1O`: the IC50 in test [1] was greater than 25 µM.

Consider `COc1cc(/C=C/c2cc(/C=C/c3ccc(O)c(OC)c3)n(-c3ccc(F)cc3)n2)ccc1O`, for which the IC50 in test [1] was found to be 10.8 µM.

On to `COC(=O)c1ccc(-n2nc(/C=C/c3ccc(O)c(OC)c3)cc2/C=C/c2ccc(O)c(OC)c2)cc1`, for which, in test [1], the IC50 amounted to 9.6 µM.

For the compound `COc1cc(/C=C/c2cc(/C=C/c3ccc(O)c(OC)c3)n(-c3ccc(C(=O)OCC(C)C)cc3)n2)ccc1O`, the IC50 in test [1] came to 6.4 µM.

Consider `CCNC(=O)c1ccc(-n2nc(/C=C/c3ccc4c(c3)OCO4)cc2/C=C/c2ccc3c(c2)OCO3)cc1`, for which, in test [1], the 50% inhibitory concentration (IC50) was greater than 50 µM.

For the compound `CCOC(=O)c1ccc(-n2nc(/C=C/c3ccc(O)cc3)cc2/C=C/c2ccc(O)cc2)cc1`, the concentration for half-maximal inhibition (IC50) in test [1] came to 11.1 µM.

`COc1cc(/C=C/c2cc(/C=C/c3ccc(O)c(OC)c3)n(-c3ccc(C(=O)OC(C)C)cc3)n2)ccc1O`: the half-inhibitory concentration (IC50) in test [1] came to 12.5 µM.

Take `CCOC(=O)c1ccc(-n2nc(/C=C/c3ccc(OC)c(OC)c3)cc2/C=C/c2ccc(OC)c(OC)c2)cc1`: the IC50 in test [2] was 0.8 µM; in test [1], greater than 50 µM.

For `CCOC(=O)c1ccc(-n2nc(/C=C/c3ccc(O)cc3)cc2/C=C/c2ccc(O)cc2)cc1F`, in test [1], the IC50 is 10.3 µM.

For the compound `COc1cc(/C=C/c2cc(/C=C/c3ccc(O)c(OC)c3)n(-c3ccc(C(=O)OC/C=C(\C)CCC=C(C)C)cc3)n2)ccc1O`, the 50% inhibitory concentration (IC50) in test [1] was greater than 25 µM.

The compound `COc1cc2c(cc1OC)CN(CCc1ccc(NC(=O)c3cc(OC)c(OC)cc3NC(=O)c3cnc4ccccc4c3)cc1)CC2` registered an MED in test [3] of 1 µM.

`CCOC(=O)c1ccc(-n2nc(/C=C/c3ccc(OC)c(OC)c3)cc2/C=C/c2ccc(OC)c(OC)c2)cc1F`: the IC50 in test [2] was 0.2 µM; in test [1], greater than 50 µM.

`CCNC(=S)c1ccc(-n2nc(/C=C/c3ccc(OC)c(OC)c3)cc2/C=C/c2ccc(OC)c(OC)c2)cc1`: the IC50 was 0.5 µM in test [2] and greater than 50 µM in test [1].
